Reference: patent publication US9932320B2 (BRISTOL-MYERS SQUIBB COMPANY, priority 2014, dated 2018)

Molecular target: T1, AAK1 (GST-Xa-hAAK1) (Homo sapiens, UniProt Q2M2I8)
T1 construct: made in house
Assay: AAK1 Kinase Assay (Caliper LabChip, fluoresceinated peptide substrate)
Assay type: biochemical
Details: AAK1 functional potency; class symbols; read-out: IC50 (nM), functional potency as IC50 ranges
Experimental: The assays were performed in U-bottom 384-well plates. The final assay volume was 30 μl prepared from 15 μl additions of enzyme and substrates (fluoresceinated peptide (5-FAM)-Aha-KEEQSQITSQVTGQIGWR-NH2 and ATP) and test compounds in assay buffer (10 mM Tris-HCL pH 7.4, 10 mM MgCl2, 0.01% Tween-20 and 1.0 mM DTT). The reactions were initiated by the combination of bacterially expressed, GST-Xa-hAAK1 with substrates and test compounds. The reactions were incubated at room temperature for 3 hours and terminated by adding 60 μl of 35 mM EDTA buffer to each sample. The reactions were analyzed on the Caliper LabChip 3000 (Caliper, Hopkinton, Mass.) by electrophoretic separation of the fluorescent substrate and phosphorylated product. Inhibition data were calculated by comparison to EDTA quenched control reactions for 100% inhibition and vehicle-only reactions for 0% inhibition. The final concentration of reagents in the assays are ATP, 22 μM; (5-FAM)-Aha-KEEQSQITSQVTGQIGWR-NH2, 1.5 μM; GST-Xa-hAAK1, 3.5 nM; and DMSO, 1.6%. Dose response curves were generated to determine the concentration required inhibiting 50% of kinase activity (IC50). Compounds were dissolved at 10 mM in dimethylsulfoxide (DMSO) and evaluated at eleven concentrations. IC50 values were derived by non-linear regression analysis.

T1 sequence (Q2M2I8 whole entry): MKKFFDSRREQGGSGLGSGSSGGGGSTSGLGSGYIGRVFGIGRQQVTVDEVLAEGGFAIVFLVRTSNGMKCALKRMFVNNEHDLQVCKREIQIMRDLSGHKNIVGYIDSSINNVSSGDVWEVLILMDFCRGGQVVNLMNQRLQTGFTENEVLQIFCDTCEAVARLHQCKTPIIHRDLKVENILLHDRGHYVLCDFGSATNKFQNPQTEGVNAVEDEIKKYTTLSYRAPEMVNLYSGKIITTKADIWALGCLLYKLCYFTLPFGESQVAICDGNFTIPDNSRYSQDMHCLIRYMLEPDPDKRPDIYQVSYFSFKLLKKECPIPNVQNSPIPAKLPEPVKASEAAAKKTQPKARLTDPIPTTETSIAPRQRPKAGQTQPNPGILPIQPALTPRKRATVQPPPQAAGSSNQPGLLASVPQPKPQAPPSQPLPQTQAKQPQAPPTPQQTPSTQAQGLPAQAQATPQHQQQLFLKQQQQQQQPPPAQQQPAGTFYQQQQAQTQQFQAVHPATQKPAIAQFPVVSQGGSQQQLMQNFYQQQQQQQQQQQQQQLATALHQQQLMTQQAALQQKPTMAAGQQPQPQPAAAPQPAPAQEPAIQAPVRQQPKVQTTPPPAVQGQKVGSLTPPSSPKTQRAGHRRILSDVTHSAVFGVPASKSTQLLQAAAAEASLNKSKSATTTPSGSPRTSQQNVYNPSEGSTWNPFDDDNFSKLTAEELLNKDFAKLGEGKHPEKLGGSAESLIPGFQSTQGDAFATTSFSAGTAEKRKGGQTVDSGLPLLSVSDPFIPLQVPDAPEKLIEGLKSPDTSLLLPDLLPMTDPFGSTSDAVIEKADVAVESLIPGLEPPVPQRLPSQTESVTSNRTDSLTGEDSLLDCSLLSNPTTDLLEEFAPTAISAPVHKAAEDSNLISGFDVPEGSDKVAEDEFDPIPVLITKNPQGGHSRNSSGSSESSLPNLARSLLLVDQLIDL

Row | IC50 [nM] | SMILES
1 | 11 to 100 | CC(C)CC(N)c1ccc2cc(-c3ccnc(NC(=O)c4cccc(F)c4)c3)ccc2n1 (centres unmarked) [Example 35, N-(4-(2-(1-amino-3-methylbutyl)quinolin-6-yl)pyridin-2-yl)-3-fluorobenzamide]
2 | 101 to 2500 | CC(=O)Nc1cc(-c2ccc3nc(C(=O)CC(C)C)ccc3c2)ccn1 [Example 30, N-(4-(2-(3-methylbutanoyl)quinolin-6-yl)pyridin-2-yl)acetamide]
3 | 101 to 2500 | COc1cnccc1-c1ccc2nc(C(N)CC(C)C)ccc2c1 (single isomer, unassigned; (+)) [Example 22, (+)-1-(6-(3-methoxypyridin-4-yl)quinolin-2-yl)-3-methylbutan-1-amine]
4 | 11 to 100 | CC(C)CC(N)c1cc(C#N)c2cc(-c3ccncc3)cc(F)c2n1 (centres unmarked) [Example 44, 2-(1-amino-3-methylbutyl)-8-fluoro-6-(pyridin-4-yl)quinoline-4-carbonitrile]
5 | 11 to 100 | CC(C)CC(N)c1ccc2cc(-c3ccnc4ccccc34)ccc2n1 (centres unmarked) [Example 26, 1-([4,6′-biquinolin]-2′-yl)-3-methylbutan-1-amine]
